Measurements from patent US6524999B2, “Growth inhibitors against algae and moss” (Kagome Kabushiki Kaisha, priority 2000, dated 2003).

Test system: algae (Chlamydomonas, Scenedesumus, Actinastrum, Ulothrix, Oscillatoria, Spirogyra, Pleurotaenium, Stichoccus and Chlorella)
Test: Hydroponic Culture Test No. 1: algae disks immersed in test nutrient solutions, visual examination of algae growth
Type: cell-based, algae collected from hydroponic culture of tomato plants
Set-up: key: +: Algae growth was clearly observed; −: Algae growth was not observed
Conditions: 7 days, 250° C., continuous light 2500 lux
Description: Algae which grew in hydroponic culture of tomato plants inside a greenhouse provided with a hydroponic culture system were collected. A control nutrient solution was prepared by dissolving in 1 liter of water 0.625 g, 0.417 g, 0.042 g and 0.029 g respectively of Otsuka House Nos. 1, 2, 3 and 5 (tradenames of products by Otsuka Chemical Co., Ltd.) Identified in the collected algae were the following nine kinds: Chlamydomonas, Scenedesumus, Actinastrum, Ulothrix, Oscillatoria, Spirogyra, Pleurotaenium, Stichoccus and Chlorella.
The algae thus collected were filtered by using a filtering net with opening diameter of 53 μm. After the filtrate was buried inside the aforementioned control nutrient solution containing agar by 0.8 weight %, disks were cut out therefrom by means of a cork borer. Test nutrient solutions which were individually prepared by adding indoleacetic acid, 3-indole propionic acid or 3-(3-indolyl) butyric acid shown by Formula 1 at different concentrations to the control nutrient solution, and after these disks were immersed individually in these test nutrient solutions for 7 days at […] under a continuous illumination of light at 2500 lux, the growth of algae was visually examined.

SMILES	growth of algae (visual) (Concentration 0.1 mg/liter)	growth of algae (visual) (Concentration 0.5 mg/liter)	growth of algae (visual) (Concentration 1 mg/liter)	growth of algae (visual) (Concentration 5 mg/liter)	growth of algae (visual) (Concentration 10 mg/liter)	growth of algae (visual) (Concentration 25 mg/liter)	growth of algae (visual) (Concentration 50 mg/liter)
O=C(O)Cc1c[nH]c2ccccc12 [IAA, indoleacetic acid]	+	+	+	+	+	+	+
O=C(O)CCc1c[nH]c2ccccc12 [IPA, 3-indole propionic acid]	+	+	+	+	+	+	+
CC(CC(=O)O)c1c[nH]c2ccccc12 (stereo not drawn) [IBA, 3-(3-indolyl) butyric acid]	+	+	+	+	−	−	−
